Laboratory results from ChEMBL document CHEMBL3585263, “Novel Octahydropyrrolo[3,4-c]pyrroles Are Selective Orexin-2 Antagonists: SAR Leading to a Clinical Candidate” (J Med Chem, 2015).
Converted amounts (≈) assume the structure as drawn.

Legend:
[1] = Physical stability of the compound at 75% relative humidity at 40 degC after 4 weeks by PXRD analysis; type: physicochemical; settings: 672 h
[2] = Clearance in beagle dog at 10 mg/kg, po and 1 mg/kg, iv; type: ADME, organism-based, Canis lupus familiaris; settings: in vivo
[3] = Volume of distribution at steady state in Balb/c mouse at 10 mg/kg, po and 1 mg/kg, iv; type: ADME, organism-based; settings: in vivo, read-out: Vdss
[4] = Physical stability of the compound at ambient relative humidity at 22 degC after 4 weeks by PXRD analysis; type: physicochemical; settings: 672 h
[5] = Oral bioavailability in beagle dog at 10 mg/kg; type: ADME, organism-based, Canis lupus familiaris; settings: in vivo
[6] = Clearance in Balb/c mouse at 10 mg/kg, po and 1 mg/kg, iv; type: ADME, organism-based; settings: in vivo
[7] = Chemical stability of the compound in pH 7.4 phosphate buffer assessed as compound remaining at room temperature after 4 weeks by HPLC analysis; type: physicochemical; settings: read-out: Stability
[8] = Half life in Balb/c mouse at 1 mg/kg, iv; type: ADME, organism-based; settings: in vivo
[9] = Half life in cynomolgus monkey at 1 mg/kg, iv; type: ADME, organism-based, Macaca fascicularis; settings: in vivo
[10] = Chemical stability of the compound in pH 10 carbonate buffer assessed as compound remaining at room temperature after 4 weeks by HPLC analysis; type: physicochemical; settings: read-out: Stability
[11] = Volume of distribution at steady state in cynomolgus monkey at 10 mg/kg, po and 1 mg/kg, iv; type: ADME, organism-based, Macaca fascicularis; settings: in vivo, read-out: Vdss
[12] = Chemical stability of the compound in pH 4 acetate buffer assessed as compound remaining at room temperature after 1 week by HPLC analysis; type: physicochemical; settings: read-out: Stability
Rattus norvegicus [13] = assay: Reduction in NREM sleep latency in po dosed rat electroencephalographic model administered at onset of dark phase by telemetry device; type: functional, organism-based
[14] = Chemical stability of the compound in pH 7.4 phosphate buffer assessed as compound remaining at 60 degC after 1 week by HPLC analysis; type: physicochemical; settings: read-out: Stability
Rattus norvegicus [15] = assay: Ex vivo OX2 receptor occupancy in po dosed Sprague-Dawley rat brain after 15 mins by autoradiographic analysis; type: functional, organism-based
[16] = Protein binding in rat brain at 5 uM after 5 hrs by equilibrium dialysis method; type: ADME, tissue-based; settings: read-out: PB (converted)
[17] = Chemical stability of the compound in pH 2 phosphate buffer assessed as compound remaining at 60 degC after 1 week by HPLC analysis; type: physicochemical; settings: read-out: Stability
[18] = Oral bioavailability in cynomolgus monkey at 10 mg/kg; type: ADME, organism-based, Macaca fascicularis; settings: in vivo
[19] = Clearance in Sprague-Dawley rat at 10 mg/kg, po and 1 mg/kg, iv; type: ADME, organism-based; settings: in vivo
[20] = Chemical stability of the compound in pH 4 acetate buffer assessed as compound remaining at 60 degC after 4 weeks by HPLC analysis; type: physicochemical; settings: read-out: Stability
[21] = Volume of distribution at steady state in Sprague-Dawley rat at 10 mg/kg, po and 1 mg/kg, iv; type: ADME, organism-based; settings: in vivo, read-out: Vdss
[22] = Clearance in cynomolgus monkey at 10 mg/kg, po and 1 mg/kg, iv; type: ADME, organism-based, Macaca fascicularis; settings: in vivo
[23] = Chemical stability of the compound in pH 2 phosphate buffer assessed as compound remaining at room temperature after 4 weeks by HPLC analysis; type: physicochemical; settings: read-out: Stability
Rattus norvegicus [24] = assay: Effect on REM sleep time in rat electroencephalographic model at 1 to 30 mg/kg, po administered at onset of dark phase measured for 2 hrs by telemetry device; type: ADME, organism-based; settings: in vivo
Rattus norvegicus [25] = assay: Increase in NREM sleep time in po dosed rat electroencephalographic model administered at onset of dark phase measured for 2 hrs by telemetry device; type: functional, organism-based
[26] = Fraction unbound in mouse plasma at 0.1 to 10 uM after 6 hrs by equilibrium dialysis method; type: ADME, cell-free
[27] = Chemical stability of the compound assessed as compound remaining at ambient relative humidity at 22 degC after 4 weeks by HPLC analysis; type: physicochemical; settings: read-out: Stability
[28] = Chemical stability of the compound in pH 2 phosphate buffer assessed as compound remaining at room temperature after 1 week by HPLC analysis; type: physicochemical; settings: read-out: Stability
Rattus norvegicus [29] = assay: Ex vivo OX2 receptor occupancy in Sprague-Dawley rat brain at 30 mg/kg, po after 15 mins by autoradiographic analysis; type: functional
Plasma [30] = assay: Plasma protein binding in human at 1 uM after 6 hrs by equilibrium dialysis method; type: ADME, cell-free; settings: 6 h, 1 µM
[31] = Oral bioavailability in Sprague-Dawley rat at 10 mg/kg; type: ADME, organism-based; settings: in vivo
Plasma [32] = assay: Fraction unbound in human plasma at 0.1 to 10 uM after 6 hrs by equilibrium dialysis method; type: ADME, cell-free
[33] = Fraction unbound in cynomolgus monkey plasma at 0.1 to 10 uM after 6 hrs by equilibrium dialysis method; type: ADME, cell-free, Macaca fascicularis
[34] = Half life in beagle dog at 1 mg/kg, iv; type: ADME, organism-based, Canis lupus familiaris; settings: in vivo
[35] = Chemical stability of the compound in pH 4 acetate buffer assessed as compound remaining at 60 degC after 1 week by HPLC analysis; type: physicochemical; settings: read-out: Stability
[36] = Half life in Sprague-Dawley rat at 1 mg/kg, iv; type: ADME, organism-based; settings: in vivo
[37] = Chemical stability of the compound in pH 10 carbonate buffer assessed as compound remaining at room temperature after 1 week by HPLC analysis; type: physicochemical; settings: read-out: Stability
[38] = Chemical stability of the compound in pH 2 phosphate buffer assessed as compound remaining at 60 degC after 4 weeks by HPLC analysis; type: physicochemical; settings: read-out: Stability
[39] = Oral bioavailability in Balb/c mouse at 10 mg/kg; type: ADME, organism-based; settings: in vivo
[40] = Fraction unbound in beagle dog plasma at 0.1 to 10 uM after 6 hrs by equilibrium dialysis method; type: ADME, cell-free, Canis lupus familiaris
Plasma [41] = assay: Fraction unbound in rat plasma at 0.1 to 10 uM after 6 hrs by equilibrium dialysis method; type: ADME, cell-free
[42] = Volume of distribution at steady state in beagle dog at 10 mg/kg, po and 1 mg/kg, iv; type: ADME, organism-based, Canis lupus familiaris; settings: in vivo, read-out: Vdss
[43] = Chemical stability of the compound in pH 7.4 phosphate buffer assessed as compound remaining at room temperature after 1 week by HPLC analysis; type: physicochemical; settings: read-out: Stability
[44] = Chemical stability of the compound in pH 7.4 phosphate buffer assessed as compound remaining at 60 degC after 4 weeks by HPLC analysis; type: physicochemical; settings: read-out: Stability
[45] = Chemical stability of the compound in pH 10 carbonate buffer assessed as compound remaining at 60 degC after 1 week by HPLC analysis; type: physicochemical; settings: read-out: Stability
[46] = Chemical stability of the compound assessed as compound remaining at ambient relative humidity at 80 degC after 4 weeks by HPLC analysis; type: physicochemical; settings: read-out: Stability
[47] = Physical stability of the compound at ambient relative humidity at 80 degC after 4 weeks by PXRD analysis; type: physicochemical; settings: 672 h
Orexin receptor type 2 = biological target: T1, Orexin receptor type 2 (Rattus norvegicus, UniProt P56719); assay: Binding affinity to rat OX2 receptor
T1 sequence (P56719 whole entry): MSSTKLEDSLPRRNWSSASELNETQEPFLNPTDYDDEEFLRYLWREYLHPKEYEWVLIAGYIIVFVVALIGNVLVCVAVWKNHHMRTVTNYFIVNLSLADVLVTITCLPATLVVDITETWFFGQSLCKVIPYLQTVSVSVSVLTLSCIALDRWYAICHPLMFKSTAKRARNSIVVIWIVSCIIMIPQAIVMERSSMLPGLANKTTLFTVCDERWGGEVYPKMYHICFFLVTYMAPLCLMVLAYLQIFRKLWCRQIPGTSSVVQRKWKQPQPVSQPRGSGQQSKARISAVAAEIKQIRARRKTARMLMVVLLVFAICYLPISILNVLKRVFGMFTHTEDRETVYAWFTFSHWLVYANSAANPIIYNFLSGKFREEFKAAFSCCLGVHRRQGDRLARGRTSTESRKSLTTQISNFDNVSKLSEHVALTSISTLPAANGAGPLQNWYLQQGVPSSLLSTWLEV

[48] = Chemical stability of the compound assessed as compound remaining at 75% relative humidity at 40 degC after 4 weeks by HPLC analysis; type: physicochemical; settings: read-out: Stability
[49] = Chemical stability of the compound in pH 10 carbonate buffer assessed as compound remaining at 60 degC after 4 weeks by HPLC analysis; type: physicochemical; settings: read-out: Stability
Plasma [50] = assay: Plasma protein binding in rat at 1 uM after 6 hrs by equilibrium dialysis method; type: ADME, cell-free; settings: 6 h, 1 µM
[51] = Chemical stability of the compound in pH 4 acetate buffer assessed as compound remaining at room temperature after 4 weeks by HPLC analysis; type: physicochemical; settings: read-out: Stability
[52] = biological target: T2, Orexin/Hypocretin receptor type 1 (Homo sapiens, UniProt O43613); assay: Binding affinity to human OX1 receptor expressed in CHO cell membranes by scintillation counting analysis
T2 sequence (O43613 whole entry): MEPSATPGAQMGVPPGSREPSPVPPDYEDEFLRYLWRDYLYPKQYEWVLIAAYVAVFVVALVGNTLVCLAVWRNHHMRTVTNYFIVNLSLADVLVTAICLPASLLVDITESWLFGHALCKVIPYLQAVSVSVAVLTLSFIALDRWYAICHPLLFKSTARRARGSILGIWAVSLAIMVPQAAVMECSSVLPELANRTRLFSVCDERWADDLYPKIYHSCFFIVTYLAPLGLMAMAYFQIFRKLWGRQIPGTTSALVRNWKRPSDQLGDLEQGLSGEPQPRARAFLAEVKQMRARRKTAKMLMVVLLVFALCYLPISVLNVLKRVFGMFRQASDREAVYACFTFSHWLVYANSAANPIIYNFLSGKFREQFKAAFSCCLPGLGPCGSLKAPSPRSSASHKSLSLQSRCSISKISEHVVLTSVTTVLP

Cc1cc(C)nc(N2C[C@H]3CN(C(=O)c4c(F)cccc4-n4nccn4)C[C@H]3C2)n1 [SELTOREXANT]
Stability [1]: Stable | clearance [2]: 0.588 L/h/kg | Vd [3]: 0.6 L/kg | Stability [4]: Stable | bioavailability [5]: 19% | clearance [6]: 2.16 L/h/kg | remaining at 672 h [7]: 103% | half-life [8]: 12 min | half-life [9]: 24 min | remaining at 672 h [10]: 102% | Vd [11]: 0.4 L/kg | remaining at 168 h [12]: 99.7% | Activity (Rattus norvegicus [13]): Dose-dependent effect | remaining at 168 h [14]: 102% | EC50 (Rattus norvegicus [15]): 0.171 mg/L (≈ 0.42 µM) | Occ (Rattus norvegicus [15]): Dose-dependent effect | ED50 (Rattus norvegicus [15]; po): 3 mg/kg | fraction unbound at 5 h, 5 µM [16]: 0.119 | remaining at 168 h [17]: 101% | bioavailability [18]: 6% | clearance [19]: 2.4 L/h/kg | remaining at 672 h [20]: 102% | Vd [21]: 0.7 L/kg | clearance [22]: 0.96 L/h/kg | remaining at 672 h [23]: 102% | Activity (Rattus norvegicus [24]): Non-toxic | Activity (Rattus norvegicus [25]): Dose-dependent effect | fraction unbound at 6 h [26]: 0.041 | remaining at 672 h [27]: 100% | remaining at 168 h [28]: 100% | Occ (Rattus norvegicus [29]): 71% | PPB (Plasma [30]): 95.9% | bioavailability [31]: 24% | Fu (Plasma [32]): 2.9% | fraction unbound at 6 h [33]: 0.044 | half-life [34]: 66 min | remaining at 168 h [35]: 99.4% | half-life [36]: 18 min | remaining at 168 h [37]: 101% | remaining at 672 h [38]: 101% | bioavailability [39]: 16% | fraction unbound at 6 h [40]: 0.096 | Fu (Plasma [41]): 5.6% | Vd [42]: 0.7 L/kg | remaining at 168 h [43]: 101% | remaining at 672 h [44]: 99.8% | remaining at 168 h [45]: 102% | remaining at 672 h [46]: 100% | Stability [47]: Stable | Ki (Orexin receptor type 2): 0.01 µM | remaining at 672 h [48]: 100% | remaining at 672 h [49]: 102% | PPB (Plasma [50]): 92.7% | remaining at 672 h [51]: 101%

COc1cccc(OC)c1C(=O)N1CCCN(c2nc3ccc(Cl)cc3s2)CC1
Ki [52]: 0.216 µM
